Values after ≈ are worked out from the molar mass of the structure shown.

Data set [1] in a line: Release of anti-microbial agent from chewing gum composition after 10 minutes of chewing. The class given is physicochemical. As to conditions: for Q factor (100/percentage released): chewing gum composition; for Release Rate (%) After 10 Minutes of Chewing: chewing gum compositions. On the procedure:
The germ kill potential (P) therefore is determined by the product of the concentration of at least one anti-microbial agent contained in the composition and the germ kill rating of each anti-microbial agent. The result is in turn multiplied by the mass of the composition and a factor Q as defined previously which is a measure of how easily the anti-microbial agent is released from the oral composition into the oral cavity. The Q factor may be readily determined for a given oral composition by comparing the amount of the anti-microbial agent present in the oral composition before placement in the oral cavity and how much remains after placement in the oral cavity for a fixed period of time. For other compositions such as chewing gum compositions, the release rate of the anti-microbial agent is much slower. Typically only a portion of the anti-microbial agent is released instantaneously and/or on initial chewing. For example, the release rate of anti-microbial agents after 10 minutes of chewing can be as low as less than 10%. […] Thus, the factor Q is 11.1 (100%/9%). The targeted (P) value selected for the chewing gum composition would therefore have to be about 11.1 times greater than the (P) value for the corresponding pressed mint composition.

For data set [2], the system named is microorganisms found in the oral cavity. Put plainly: Germ kill rating (R), ratio of ATC and MIC. The conditions noted are these: mint lozenge having a weight of 1.5 grams. From the text:
The germ kill rating (R) is therefore a quantitative indication of the range of concentrations of the anti-microbial agent (i.e. effective concentration range) that may be employed to achieve both the desirable germ kill properties and acceptable taste. By way of example, an anti-microbial agent having a germ kill rating of 10 has an effective concentration range twice as large as an anti-microbial agent having a germ kill rating of 5. The germ kill rating (R) of each anti-microbial agent used in the oral composition is the ratio of the maximum acceptable taste concentration (ATC) of the anti-microbial agent and the minimum inhibitory concentration (MIC). The germ kill rating (R) is therefore a value representative of the suitability of a particular anti-microbial agent to provide a balance between acceptable taste and germ killing efficacy. A relatively high (R) value is indicative of an anti-microbial agent that can be used in a relatively large range of concentrations without adversely effecting taste while still obtaining the desired germ kill properties. […] The maximum acceptable taste concentration (ATC) of an anti-microbial agent can be determined through known population sampling methods. […] The results are averaged and analyzed according to known statistical methods to yield the ATC value for a particular anti-microbial agent in a given solid carrier (e.g. mint lozenge). […]

The test system is the same in data set [3]. Put plainly: Minimum inhibitory concentration (MIC) of anti-microbial agent. It counts as cell-based. From the text:
The germ kill rating (R) of each anti-microbial agent used in the oral composition is the ratio of the maximum acceptable taste concentration (ATC) of the anti-microbial agent and the minimum inhibitory concentration (MIC). The germ kill rating (R) is therefore a value representative of the suitability of a particular anti-microbial agent to provide a balance between acceptable taste and germ killing efficacy. A relatively high (R) value is indicative of an anti-microbial agent that can be used in a relatively large range of concentrations without adversely effecting taste while still obtaining the desired germ kill properties. […] However, thymol has a very low maximum acceptable taste concentration and therefore provides a germ kill rating (R) of 1.1 which is lower than the other four essential oils in Table 2 even though the other essential oils have a higher minimum inhibitory concentration.

For `CC1CCC(C(C)C)C(O)C1` (centres unmarked) [Menthol], in data set [1], the “Q factor (100/percentage released)” value came out at 11.1 and the “Release Rate (%) After 10 Minutes of Chewing” value is on record as 9%. Besides, in data set [2], the “Germ Kill Rating (R)” value came to 24. This molecule also showed an MIC in data set [3] of 500 µg/mL (≈ 3200 µM).
With `CC(C)[C@@H]1CC[C@@H](C)CC1=O` [Menthone], in data set [1], the “Release Rate (%) After 10 Minutes of Chewing” value came to 10.4%.
For the molecule `CC12CCC(CC1)C(C)(C)O2` [Eucalyptol], in data set [1], the “Q factor (100/percentage released)” value was determined as 5.025 and the “Release Rate (%) After 10 Minutes of Chewing” value came to 19.9%. Moreover, in data set [1] (listed as eucalyptol), the “Release Rate (%) After 10 Minutes of Chewing” value stood at 19.9%.
Take `COC(=O)c1ccccc1O` [Methyl Salicylate]: the “Release Rate (%) After 10 Minutes of Chewing” value in data set [1] stood at 8.9%.
As for `Cc1ccc(C(C)C)c(O)c1` [Thymol], the “Germ Kill Rating (R)” value in data set [2] was 1.1. The molecule further gave an MIC in data set [3] of 87 µg/mL (≈ 579 µM).
